The record followed here is patent publication US20090304692A1, “TRIAZINE COMPOUNDS AS PI3 KINASE AND MTOR INHIBITORS” (Wyeth, priority 2008, published 2009).

For assay [1], the system named is human prostate PC3-mm2 tumor cell line. In words: In vitro cell culture growth assay (MTS), PC3-mm2. Type of assay: cell-based. Conditions: Homo sapiens, PC3MM2, 72 h, three days after drug treatment, PC3-mm2 cells, read-out: IC50 PC3-mm2.
Assay [2] deals with Human mTOR (FLAG-TOR) (Homo sapiens, UniProt P42345). In words: mTOR kinase assay (DELFIA format, purified enzyme). In kind it is biochemical. The settings on record: read-out: IC50 mTOR.
The subject of assay [3] is human breast MDA-MB-361 tumor cell line. Kind of assay: In vitro cell culture growth assay (MTS), MDA-MB-361. Type of assay: cell-based. The settings on record: Homo sapiens, three days after drug treatment, MDA-MB-361 cells, read-out: IC50 MDA-MB-361.
Assay [4] concerns the target PI3K-γ (Homo sapiens, UniProt P48736). In words: PI3K-gamma fluorescence polarization assay. Conditions: read-out: IC50 PI3Kγ. (Fluorescence polarisation rises when a labelled molecule tumbles more slowly, as on binding a larger partner.)
The target in assay [5] is PI3K-α (Homo sapiens, UniProt P42336). In words: PI3K-alpha fluorescence polarization assay. Conditions: read-out: IC50 PI3Kα.
[6] abbreviates: MDA-MB-361, 72 h, MTS cell growth assay.

Where two headings read alike, the source gives them in different places.

The IC50 is the point on the concentration scale where inhibition reaches its midpoint.

Chain of PI3K-α (P42336 whole entry, species assumed): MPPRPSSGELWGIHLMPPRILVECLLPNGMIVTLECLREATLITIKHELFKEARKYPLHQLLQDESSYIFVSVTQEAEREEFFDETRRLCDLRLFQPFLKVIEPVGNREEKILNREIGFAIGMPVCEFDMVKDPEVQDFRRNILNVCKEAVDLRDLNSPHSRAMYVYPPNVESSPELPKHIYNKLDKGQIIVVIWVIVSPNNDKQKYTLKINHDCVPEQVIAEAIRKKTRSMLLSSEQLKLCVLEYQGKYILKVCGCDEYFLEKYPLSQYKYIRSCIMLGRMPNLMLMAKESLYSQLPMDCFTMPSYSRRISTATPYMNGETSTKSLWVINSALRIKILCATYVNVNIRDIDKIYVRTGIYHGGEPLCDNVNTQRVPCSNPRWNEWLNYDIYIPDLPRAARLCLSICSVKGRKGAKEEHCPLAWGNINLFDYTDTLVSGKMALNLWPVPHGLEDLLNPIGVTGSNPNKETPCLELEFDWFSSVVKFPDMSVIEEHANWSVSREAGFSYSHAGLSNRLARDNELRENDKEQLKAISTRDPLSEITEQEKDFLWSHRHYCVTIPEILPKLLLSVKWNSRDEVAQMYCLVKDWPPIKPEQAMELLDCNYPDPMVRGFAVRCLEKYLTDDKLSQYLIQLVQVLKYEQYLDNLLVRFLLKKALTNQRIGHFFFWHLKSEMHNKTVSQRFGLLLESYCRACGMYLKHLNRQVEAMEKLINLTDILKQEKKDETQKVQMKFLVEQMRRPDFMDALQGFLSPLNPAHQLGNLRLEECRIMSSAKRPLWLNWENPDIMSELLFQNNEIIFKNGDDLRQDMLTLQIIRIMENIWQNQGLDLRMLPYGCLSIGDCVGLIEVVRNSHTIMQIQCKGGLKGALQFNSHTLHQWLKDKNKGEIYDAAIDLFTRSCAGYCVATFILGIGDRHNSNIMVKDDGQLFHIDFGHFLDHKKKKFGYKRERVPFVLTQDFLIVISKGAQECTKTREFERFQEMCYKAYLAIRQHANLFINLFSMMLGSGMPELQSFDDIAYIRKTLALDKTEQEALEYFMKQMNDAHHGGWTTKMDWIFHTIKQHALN
Chain of PI3K-α (P27986 whole entry partner, species assumed): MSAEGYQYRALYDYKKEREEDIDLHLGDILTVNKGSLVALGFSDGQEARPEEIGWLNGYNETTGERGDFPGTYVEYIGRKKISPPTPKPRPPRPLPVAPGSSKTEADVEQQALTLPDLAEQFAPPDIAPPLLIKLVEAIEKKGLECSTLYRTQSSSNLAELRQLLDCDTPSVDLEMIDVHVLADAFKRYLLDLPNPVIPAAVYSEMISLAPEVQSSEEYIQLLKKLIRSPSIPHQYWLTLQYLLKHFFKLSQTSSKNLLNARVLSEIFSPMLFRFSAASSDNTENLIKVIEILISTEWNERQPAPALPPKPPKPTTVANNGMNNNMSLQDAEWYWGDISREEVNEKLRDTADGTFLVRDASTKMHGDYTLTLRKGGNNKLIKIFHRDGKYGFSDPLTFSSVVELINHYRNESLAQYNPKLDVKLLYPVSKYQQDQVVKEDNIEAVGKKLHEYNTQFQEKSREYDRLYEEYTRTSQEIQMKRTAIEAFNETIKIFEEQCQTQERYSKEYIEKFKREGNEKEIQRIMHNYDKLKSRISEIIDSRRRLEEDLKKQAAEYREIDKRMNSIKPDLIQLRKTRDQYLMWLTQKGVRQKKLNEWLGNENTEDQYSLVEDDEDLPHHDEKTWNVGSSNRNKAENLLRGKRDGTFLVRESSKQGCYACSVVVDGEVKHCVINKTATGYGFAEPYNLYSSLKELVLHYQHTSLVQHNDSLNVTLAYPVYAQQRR
Chain of Human mTOR (FLAG-TOR) (P42345 1360-2549 limits assumed): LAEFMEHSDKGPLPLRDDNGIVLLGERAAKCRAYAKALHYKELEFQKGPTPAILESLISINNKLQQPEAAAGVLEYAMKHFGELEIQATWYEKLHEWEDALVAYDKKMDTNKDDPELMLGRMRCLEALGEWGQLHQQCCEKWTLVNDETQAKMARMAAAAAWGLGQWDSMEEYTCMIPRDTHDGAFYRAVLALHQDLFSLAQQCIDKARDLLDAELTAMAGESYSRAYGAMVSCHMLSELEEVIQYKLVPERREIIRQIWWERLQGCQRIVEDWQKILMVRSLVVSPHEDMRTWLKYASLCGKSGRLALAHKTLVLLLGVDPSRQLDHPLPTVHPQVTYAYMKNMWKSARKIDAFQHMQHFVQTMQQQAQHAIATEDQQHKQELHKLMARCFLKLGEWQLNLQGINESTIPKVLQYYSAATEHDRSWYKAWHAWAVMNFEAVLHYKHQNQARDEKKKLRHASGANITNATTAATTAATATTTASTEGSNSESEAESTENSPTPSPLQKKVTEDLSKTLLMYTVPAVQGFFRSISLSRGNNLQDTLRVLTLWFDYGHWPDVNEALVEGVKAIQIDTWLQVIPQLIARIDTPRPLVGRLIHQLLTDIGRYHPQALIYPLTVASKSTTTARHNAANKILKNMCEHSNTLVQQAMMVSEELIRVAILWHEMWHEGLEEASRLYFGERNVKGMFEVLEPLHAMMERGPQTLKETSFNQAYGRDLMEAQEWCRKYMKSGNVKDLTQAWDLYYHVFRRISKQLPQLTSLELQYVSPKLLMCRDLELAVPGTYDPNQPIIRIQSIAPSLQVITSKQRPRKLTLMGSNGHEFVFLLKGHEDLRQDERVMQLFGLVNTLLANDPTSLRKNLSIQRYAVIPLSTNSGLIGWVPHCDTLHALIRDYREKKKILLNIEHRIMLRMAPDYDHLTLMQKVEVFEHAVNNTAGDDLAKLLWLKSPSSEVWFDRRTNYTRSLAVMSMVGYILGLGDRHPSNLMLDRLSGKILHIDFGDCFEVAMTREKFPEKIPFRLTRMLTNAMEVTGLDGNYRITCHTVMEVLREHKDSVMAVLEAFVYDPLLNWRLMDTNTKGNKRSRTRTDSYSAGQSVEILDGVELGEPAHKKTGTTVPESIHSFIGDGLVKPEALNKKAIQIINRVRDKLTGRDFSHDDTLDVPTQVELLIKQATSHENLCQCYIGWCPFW
Chain of PI3K-γ (P48736 whole entry, species assumed): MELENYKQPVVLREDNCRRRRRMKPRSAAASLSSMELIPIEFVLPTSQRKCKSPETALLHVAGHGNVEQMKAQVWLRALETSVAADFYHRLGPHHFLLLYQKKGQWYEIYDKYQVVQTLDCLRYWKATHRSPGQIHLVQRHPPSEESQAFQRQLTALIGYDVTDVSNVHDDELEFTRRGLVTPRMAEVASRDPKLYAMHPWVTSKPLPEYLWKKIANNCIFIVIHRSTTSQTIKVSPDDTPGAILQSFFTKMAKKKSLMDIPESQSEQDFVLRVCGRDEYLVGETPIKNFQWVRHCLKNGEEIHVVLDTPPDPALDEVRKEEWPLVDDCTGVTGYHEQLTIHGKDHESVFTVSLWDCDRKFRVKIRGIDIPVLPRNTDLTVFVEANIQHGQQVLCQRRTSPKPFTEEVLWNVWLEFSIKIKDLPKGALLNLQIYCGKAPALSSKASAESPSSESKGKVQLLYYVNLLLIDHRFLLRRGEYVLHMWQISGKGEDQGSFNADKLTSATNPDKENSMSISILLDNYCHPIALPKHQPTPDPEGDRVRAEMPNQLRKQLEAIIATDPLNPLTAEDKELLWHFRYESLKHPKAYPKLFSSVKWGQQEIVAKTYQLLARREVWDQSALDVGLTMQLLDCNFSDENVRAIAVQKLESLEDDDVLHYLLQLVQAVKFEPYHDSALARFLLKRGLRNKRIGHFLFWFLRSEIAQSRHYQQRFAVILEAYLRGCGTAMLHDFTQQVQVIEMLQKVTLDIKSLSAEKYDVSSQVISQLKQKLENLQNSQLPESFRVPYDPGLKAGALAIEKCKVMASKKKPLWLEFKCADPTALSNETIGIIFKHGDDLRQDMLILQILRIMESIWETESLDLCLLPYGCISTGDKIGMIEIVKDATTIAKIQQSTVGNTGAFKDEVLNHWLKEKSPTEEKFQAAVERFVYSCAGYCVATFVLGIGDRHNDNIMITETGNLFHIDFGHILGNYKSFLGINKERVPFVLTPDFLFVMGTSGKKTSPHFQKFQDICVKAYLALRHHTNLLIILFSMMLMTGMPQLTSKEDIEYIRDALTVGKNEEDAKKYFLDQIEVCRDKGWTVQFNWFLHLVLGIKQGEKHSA

Regarding `O=C(Nc1ccc(C(=O)N2CCC(N3CCCCC3)CC2)cc1)Nc1ccc(-c2nc(N3CCOCC3)nc(N3C4COCC3COC4)n2)cc1` [Example 777, 1-[4-(1,4′-bipiperidin-1′-ylcarbonyl)phenyl]-3-{4-[4-(3,7-dioxa-9-azabicyclo[3.3.1]non-9-yl)-6-morpholin-4-yl-1,3,5-triazin-2-yl]phenyl}urea], the IC50 in assay [1] (MTS cell growth assay) turned out to be 4 nM; in assay [2] it was 0.265 nM; in assay [3] (setting [6]), 2 nM; in assay [4], 39 nM; in assay [5], 4 nM.

For `O=C(Nc1ccc(C(=O)NCCc2ccccn2)cc1)Nc1ccc(-c2nc(N3CCOCC3)nc(N3C4COCC3COC4)n2)cc1` [Example 778, 4-[({4-[4-(3,7-dioxa-9-azabicyclo[3.3.1]non-9-yl)-6-morpholin-4-yl-1,3,5-triazin-2-yl]phenyl}carbamoyl)amino]-N-(2-pyridin-2-ylethyl)benzamide], the IC50 in assay [1] (MTS cell growth assay) stood at 29 nM; in assay [2] it was 0.28 nM; in assay [3] (72 h, MTS cell growth assay) it was 17 nM; in assay [4], 126 nM; in assay [5], 11.5 nM.

In the case of `O=C(Nc1ccc(C(=O)NCCc2ccncc2)cc1)Nc1ccc(-c2nc(N3CCOCC3)nc(N3C4COCC3COC4)n2)cc1` [Example 779, 4-[({4-[4-(3,7-dioxa-9-azabicyclo[3.3.1]non-9-yl)-6-morpholin-4-yl-1,3,5-triazin-2-yl]phenyl}carbamoyl)amino]-N-(2-pyridin-4-ylethyl)benzamide], the IC50 in assay [1] (MTS cell growth assay) was 23 nM; in assay [2], 0.23 nM; in assay [3] (72 h, MTS cell growth assay), 13 nM; in assay [4], 49.7 nM; in assay [5], 4.2 nM.

In the case of `CN1CCN(C(=O)c2ccc(NC(=O)Nc3ccc(-c4nc(NS(=O)(=O)c5ccccc5)nc(N5CCOCC5)n4)cc3)cc2)CC1` [Example 784, N-(4-{4-[({4-[(4-methylpiperazin-1-yl)carbonyl]phenyl}carbamoyl)amino]phenyl}-6-morpholin-4-yl-1,3,5-triazin-2-yl)benzenesulfonamide], the IC50 in assay [1] (MTS cell growth assay) is > 1000 nM; in assay [2] it was 88 nM; in assay [3] (72 h, MTS cell growth assay) it was > 1000 nM; in assay [4] it was 174 nM; in assay [5], 40.5 nM.

Turning to `O=C(Nc1ccc(C(=O)N2CCNCC2)cc1)Nc1ccc(-c2nc(NS(=O)(=O)c3ccccc3)nc(N3CCOCC3)n2)cc1` [Example 785, N-{4-morpholin-4-yl-6-[4-({[4-(piperazin-1-ylcarbonyl)phenyl]carbamoyl}amino)phenyl]-1,3,5-triazin-2-yl}benzenesulfonamide], the IC50 in assay [1] (MTS cell growth assay) was > 1000 nM; in assay [2], 55.5 nM; in assay [3] (72 h, MTS cell growth assay), > 1000 nM; in assay [4] it was 45.5 nM; in assay [5], 6 nM.

Take `CN(C)C1CCN(C(=O)c2ccc(NC(=O)Nc3ccc(-c4nc(NS(=O)(=O)c5ccccc5)nc(N5CCOCC5)n4)cc3)cc2)CC1` [Example 786, N-[4-(4-{[(4-{[4-(dimethylamino)piperidin-1-yl]carbonyl}phenyl)carbamoyl]amino}phenyl)-6-morpholin-4-yl-1,3,5-triazin-2-yl]benzenesulfonamide]: the IC50 was > 1000 nM in assay [1] (MTS cell growth assay); 89 nM in assay [2]; > 1000 nM in assay [3] (setting [6]); 129 nM in assay [4]; 30.5 nM in assay [5].

`CN(C)CCN(C)C(=O)c1ccc(NC(=O)Nc2ccc(-c3nc(NS(=O)(=O)c4ccccc4)nc(N4CCOCC4)n3)cc2)cc1` [Example 787, N-[2-(dimethylamino)ethyl]-N-methyl-4-{[(4-{4-morpholin-4-yl-6-[(phenylsulfonyl)amino]-1,3,5-triazin-2-yl}phenyl)carbamoyl]amino}benzamide]: the IC50 in assay [1] (MTS cell growth assay) was > 1000 nM; in assay [2], 58.5 nM; in assay [3] (72 h, MTS cell growth assay), > 1000 nM; in assay [4], 146 nM; in assay [5], 10.5 nM.

As to `CN(C)CCNC(=O)c1ccc(NC(=O)Nc2ccc(-c3nc(NS(=O)(=O)c4ccccc4)nc(N4CCOCC4)n3)cc2)cc1` [Example 788, N-[2-(dimethylamino)ethyl]-4-{[(4-{4-morpholin-4-yl-6-[(phenylsulfonyl)amino]-1,3,5-triazin-2-yl}phenyl)carbamoyl]amino}benzamide], the IC50 in assay [1] (MTS cell growth assay) is > 1000 nM; in assay [2], 26 nM; in assay [3] (72 h, MTS cell growth assay), > 1000 nM; in assay [4], 160 nM; in assay [5], 13 nM.

As to `O=C(Nc1ccncc1)Nc1ccc(-c2nc(N3CCOCC3)nc(N3C4CCCC3COC4)n2)cc1` [Example 791, 1-{4-[4-morpholin-4-yl-6-(3-oxa-9-azabicyclo[3.3.1]non-9-yl)-1,3,5-triazin-2-yl]phenyl}-3-pyridin-4-ylurea], the IC50 in assay [1] (MTS cell growth assay) amounted to 42 nM; in assay [2], 0.68 nM; in assay [3] (72 h, MTS cell growth assay), 11 nM; in assay [4], 64.5 nM; in assay [5], 12.5 nM.

With `CN1CCN(C(=O)c2ccc(NC(=O)Nc3ccc(-c4nc(N5CCOCC5)nc(N5C6CCCC5COC6)n4)cc3)cc2)CC1` [Example 792, 1-{4-[(4-methylpiperazin-1-yl)carbonyl]phenyl}-3-{4-[4-morpholin-4-yl-6-(3-oxa-9-azabicyclo[3.3.1]non-9-yl)-1,3,5-triazin-2-yl]phenyl}urea], the IC50 in assay [1] (MTS cell growth assay) came out at 16 nM; in assay [2], 0.81 nM; in assay [3] (setting [6]), 2 nM; in assay [4], 35.5 nM; in assay [5], 3.3 nM.

Take `O=C(Nc1ccc(C(=O)N2CCNCC2)cc1)Nc1ccc(-c2nc(N3CCOCC3)nc(N3C4CCCC3COC4)n2)cc1` [Example 793, 1-{4-[4-morpholin-4-yl-6-(3-oxa-9-azabicyclo[3.3.1]non-9-yl)-1,3,5-triazin-2-yl]phenyl}-3-[4-(piperazin-1-ylcarbonyl)phenyl]urea]: the IC50 in assay [1] (MTS cell growth assay) came out at 26 nM; in assay [2], 0.42 nM; in assay [3] (setting [6]), 2 nM; in assay [4] it was 15 nM; in assay [5], 1 nM.

Consider `CN(C)C1CCN(C(=O)c2ccc(NC(=O)Nc3ccc(-c4nc(N5CCOCC5)nc(N5C6CCCC5COC6)n4)cc3)cc2)CC1` [Example 794, 1-(4-{[4-(dimethylamino)piperidin-1-yl]carbonyl}phenyl)-3-{4-[4-morpholin-4-yl-6-(3-oxa-9-azabicyclo[3.3.1]non-9-yl)-1,3,5-triazin-2-yl]phenyl}urea], for which the IC50 in assay [1] (MTS cell growth assay) worked out at 20 nM; in assay [2], 0.63 nM; in assay [3] (setting [6]) it was 2 nM; in assay [4], 26 nM; in assay [5] it was 4.1 nM.

Regarding `CN(C)CCN(C)C(=O)c1ccc(NC(=O)Nc2ccc(-c3nc(N4CCOCC4)nc(N4C5CCCC4COC5)n3)cc2)cc1` [Example 795, N-[2-(dimethylamino)ethyl]-N-methyl-4-[({4-[4-morpholin-4-yl-6-(3-oxa-9-azabicyclo[3.3.1]non-9-yl)-1,3,5-triazin-2-yl]phenyl}carbamoyl)amino]benzamide], the IC50 in assay [1] (MTS) is 10 nM; in assay [2] it was 0.425 nM; in assay [3] (72 h, MTS), < 3.2 nM; in assay [4], 26.5 nM; in assay [5] it was 2.7 nM.

As for `CN(C)CCNC(=O)c1ccc(NC(=O)Nc2ccc(-c3nc(N4CCOCC4)nc(N4C5CCCC4COC5)n3)cc2)cc1` [Example 796, N-[2-(dimethylamino)ethyl]-4-[({4-[4-morpholin-4-yl-6-(3-oxa-9-azabicyclo[3.3.1]non-9-yl)-1,3,5-triazin-2-yl]phenyl}carbamoyl)amino]benzamide], the IC50 in assay [1] (MTS) came to 18 nM; in assay [2], 0.39 nM; in assay [3] (72 h, MTS) it was 2 nM; in assay [4] it was 31.5 nM; in assay [5], 2.6 nM.

In the case of `COCCNC(=O)c1ccc(NC(=O)Nc2ccc(-c3nc(N4CCOCC4)nc(N4C5CCCC4COC5)n3)cc2)cc1` [Example 797, N-(2-methoxyethyl)-4-[({4-[4-morpholin-4-yl-6-(3-oxa-9-azabicyclo[3.3.1]non-9-yl)-1,3,5-triazin-2-yl]phenyl}carbamoyl)amino]benzamide], the IC50 was found to be 29 nM in assay [1] (MTS); 1.3 nM in assay [2]; 11 nM in assay [3] (72 h, MTS); 76 nM in assay [4]; 11.5 nM in assay [5].

Turning to `O=C(Nc1ccc(C(=O)NCCN2CCCC2)cc1)Nc1ccc(-c2nc(N3CCOCC3)nc(N3C4CCCC3COC4)n2)cc1` [Example 798, 4-[({4-[4-morpholin-4-yl-6-(3-oxa-9-azabicyclo[3.3.1]non-9-yl)-1,3,5-triazin-2-yl]phenyl}carbamoyl)amino]-N-(2-pyrrolidin-1-ylethyl)benzamide], the IC50 was 24 nM in assay [1] (MTS); 0.445 nM in assay [2]; 3 nM in assay [3] (72 h, MTS); 43.5 nM in assay [4]; 4.1 nM in assay [5].

On to `O=C(Nc1ccc(C(=O)NCCN2CCCCC2)cc1)Nc1ccc(-c2nc(N3CCOCC3)nc(N3C4CCCC3COC4)n2)cc1` [Example 799, 4-[({4-[4-morpholin-4-yl-6-(3-oxa-9-azabicyclo[3.3.1]non-9-yl)-1,3,5-triazin-2-yl]phenyl}carbamoyl)amino]-N-(2-piperidin-1-ylethyl)benzamide], for which the IC50 in assay [1] (MTS) was 24 nM; in assay [2], 0.5 nM; in assay [3] (72 h, MTS) it was < 3.2 nM; in assay [4], 71.5 nM; in assay [5], 5 nM.
